Molecules are shown by their SMILES. pEC50: −log10 of the molar value.

This is an account of results in patent US9382254B2, “Compounds and pharmaceutical compositions thereof for the treatment of cystic fibrosis” (Galapagos NV, priority 2013, dated 2016).

Common to all, as to format: cell-based
One assay concerns the target T1, CFTR G551D mutant (Homo sapiens, UniProt P13569, G551D).
T1 construct: expressed in transfected cells; host or cells: HEK293 (reverse transfection with plasmid)
The assay can be described thus: YFP-halide influx assay for the CFTR-G551D mutation. Particulars: HEK293 cells, forskolin 10.67 μM. A digest of the protocol:
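Channel opening potentiation measured as 1−F/F0, where F is YFP fluorescence 7 s after iodide injection and F0 before; EC50 taken from concentration plot. Cells: HEK293 transiently expressing CFTR G551D plus halide-sensitive YFP (H148Q, I152L, F47L), 24 h at 37 °C, 5% CO2.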

A further assay addresses T2, CFTR-S549N (Homo sapiens, UniProt P13569, S549N).
T2 construct: expressed in transfected cells
The assay can be described thus: YFP-halide influx assay for the CFTR-S549N. From the text: (§1) The YFP halide influx assay measures the functionality of the cystic fibrosis Transmembrane Conductance regulator (CFTR) channels. The assay is used to evaluate the capacity of compounds to increase the channel opening of existing mutant CFTR channels in the membrane. It makes use of the observation that the yellow fluorescent protein (YFP) variant YFP H148Q, I152L, […] has its fluorescence substantially quenched by halide ions like Cl^− and I^−. (Galietta, Haggie, & Verkman, 2001)
(§2) For this purpose, HEK293-cells are seeded in 96 well plates. During seeding, the cells are reverse-transfected with plasmid vectors that direct the expression of the CFTR G551D mutant and of the YFP reporter. Cells are incubated at 37° C., 5% CO2 for 24 hours so as to allow for sufficient expression of the CFTR protein.
(§3) The I^−-induced quenching of fluorescence is recorded immediately after injection of I^− for 7 seconds. The capacity of a compound to increase the channel opening is directly correlated with the decrease in fluorescence, and is expressed as (1-(fluorescence after 7 seconds (F)/fluorescence before injection (F0))) and an EC50 can be derived from a (1-F/F0) vs compound concentration plot.
(§4) Similar YHA assays were developed for other channel gating defective or channel conductance defective CFTR mutants to determine effect of compound on channel activity. Examples of mutants are G178R, G1349D, S549N, R117H, R334W. This assay is also used for additional class I CFTR mutants, including G542X, W1282X; class II mutants including N1303K, and for class III mutants including S1251N.

The target in a further assay is T3, CFTR-G178R (Homo sapiens, UniProt P13569, G178R).
T3 construct: expressed in transfected cells
T3 sequence (P13569 whole entry G178R): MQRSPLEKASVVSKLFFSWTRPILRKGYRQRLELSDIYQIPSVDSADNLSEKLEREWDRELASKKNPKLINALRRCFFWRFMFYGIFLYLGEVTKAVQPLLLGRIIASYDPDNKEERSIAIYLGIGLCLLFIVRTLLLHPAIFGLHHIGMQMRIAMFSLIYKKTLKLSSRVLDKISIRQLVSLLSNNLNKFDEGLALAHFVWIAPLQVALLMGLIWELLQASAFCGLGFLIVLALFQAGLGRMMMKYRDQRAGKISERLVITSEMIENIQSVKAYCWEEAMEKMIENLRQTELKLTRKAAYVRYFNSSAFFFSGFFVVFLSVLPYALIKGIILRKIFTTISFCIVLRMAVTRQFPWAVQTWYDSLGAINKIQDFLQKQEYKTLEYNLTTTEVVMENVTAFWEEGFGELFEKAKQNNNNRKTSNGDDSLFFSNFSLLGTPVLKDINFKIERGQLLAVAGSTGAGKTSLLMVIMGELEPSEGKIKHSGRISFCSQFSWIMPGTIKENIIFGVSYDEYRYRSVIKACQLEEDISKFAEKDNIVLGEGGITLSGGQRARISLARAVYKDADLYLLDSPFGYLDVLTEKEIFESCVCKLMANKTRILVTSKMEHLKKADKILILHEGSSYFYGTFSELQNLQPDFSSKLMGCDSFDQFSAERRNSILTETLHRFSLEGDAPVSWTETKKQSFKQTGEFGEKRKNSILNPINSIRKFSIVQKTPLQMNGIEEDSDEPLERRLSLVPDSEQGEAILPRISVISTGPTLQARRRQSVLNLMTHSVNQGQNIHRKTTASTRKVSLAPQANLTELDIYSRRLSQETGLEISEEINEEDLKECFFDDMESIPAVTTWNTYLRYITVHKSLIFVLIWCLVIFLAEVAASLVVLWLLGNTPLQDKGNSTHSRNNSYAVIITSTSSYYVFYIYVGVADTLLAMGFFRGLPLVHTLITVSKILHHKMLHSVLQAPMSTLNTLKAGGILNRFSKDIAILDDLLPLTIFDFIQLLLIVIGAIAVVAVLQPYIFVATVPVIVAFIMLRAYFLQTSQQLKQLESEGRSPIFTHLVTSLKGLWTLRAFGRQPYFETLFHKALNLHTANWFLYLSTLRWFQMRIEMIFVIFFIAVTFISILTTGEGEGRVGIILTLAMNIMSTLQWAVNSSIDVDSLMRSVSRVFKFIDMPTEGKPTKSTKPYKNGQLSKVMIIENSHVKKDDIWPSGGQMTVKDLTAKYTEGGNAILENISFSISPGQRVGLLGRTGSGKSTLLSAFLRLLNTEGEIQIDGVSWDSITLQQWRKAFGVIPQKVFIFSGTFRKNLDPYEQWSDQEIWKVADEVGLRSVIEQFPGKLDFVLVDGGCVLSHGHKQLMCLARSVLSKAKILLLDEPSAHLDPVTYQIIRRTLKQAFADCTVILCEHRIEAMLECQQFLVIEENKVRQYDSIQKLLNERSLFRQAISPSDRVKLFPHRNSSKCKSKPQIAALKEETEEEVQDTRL
The assay can be described thus: YFP-halide influx assay for the CFTR-G178R.
Source text: as §1, §2, §3, §4

A further assay has as its target T4, CFTR ΔF508 mutant (Homo sapiens, UniProt P13569, DEL508-508).
T4 construct: expressed in transfected cells; host or cells: CFBE41o- (adenoviral transduction)
The assay can be described thus: YFP-halide influx assay for the CFTR-ΔF508 mutation (384 well, FDSS/μCell). Particulars: CFBE41o- cells, CFTR-ΔF508, 1×D-PBS, fluorescence after 36 seconds. A digest of the protocol: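 Potentiator read-out as 1−F/F0, F taken 36 s after iodide addition, EC50 fitted against compound concentration. Cells: CFBE41o- expressing ΔF508 CFTR plus halide-sensitive YFP via adenovirus, rescued by 27 °C for 24 h or 24 h modulator at 37 °C.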

Another assay addresses T5, CFTR-R117H (Homo sapiens, UniProt P13569, R117H).
T5 construct: expressed in transfected cells
The assay can be described thus: YFP-halide influx assay for the CFTR-R117H.
Source text: as §1, §2, §3, §4

The target in another assay is T6, CFTR-G1349D (Homo sapiens, UniProt P13569, G1349D).
T6 construct: expressed in transfected cells
T6 sequence (P13569 whole entry G1349D): as the sequence (P13569 whole entry G178R) above, with R178G, G1349D counted along it
Put plainly: YFP-halide influx assay for the CFTR-G1349D.
Source text: as §1, §2, §3, §4

T4 sequence (P13569 with tags, fused parts or gaps DEL508-508): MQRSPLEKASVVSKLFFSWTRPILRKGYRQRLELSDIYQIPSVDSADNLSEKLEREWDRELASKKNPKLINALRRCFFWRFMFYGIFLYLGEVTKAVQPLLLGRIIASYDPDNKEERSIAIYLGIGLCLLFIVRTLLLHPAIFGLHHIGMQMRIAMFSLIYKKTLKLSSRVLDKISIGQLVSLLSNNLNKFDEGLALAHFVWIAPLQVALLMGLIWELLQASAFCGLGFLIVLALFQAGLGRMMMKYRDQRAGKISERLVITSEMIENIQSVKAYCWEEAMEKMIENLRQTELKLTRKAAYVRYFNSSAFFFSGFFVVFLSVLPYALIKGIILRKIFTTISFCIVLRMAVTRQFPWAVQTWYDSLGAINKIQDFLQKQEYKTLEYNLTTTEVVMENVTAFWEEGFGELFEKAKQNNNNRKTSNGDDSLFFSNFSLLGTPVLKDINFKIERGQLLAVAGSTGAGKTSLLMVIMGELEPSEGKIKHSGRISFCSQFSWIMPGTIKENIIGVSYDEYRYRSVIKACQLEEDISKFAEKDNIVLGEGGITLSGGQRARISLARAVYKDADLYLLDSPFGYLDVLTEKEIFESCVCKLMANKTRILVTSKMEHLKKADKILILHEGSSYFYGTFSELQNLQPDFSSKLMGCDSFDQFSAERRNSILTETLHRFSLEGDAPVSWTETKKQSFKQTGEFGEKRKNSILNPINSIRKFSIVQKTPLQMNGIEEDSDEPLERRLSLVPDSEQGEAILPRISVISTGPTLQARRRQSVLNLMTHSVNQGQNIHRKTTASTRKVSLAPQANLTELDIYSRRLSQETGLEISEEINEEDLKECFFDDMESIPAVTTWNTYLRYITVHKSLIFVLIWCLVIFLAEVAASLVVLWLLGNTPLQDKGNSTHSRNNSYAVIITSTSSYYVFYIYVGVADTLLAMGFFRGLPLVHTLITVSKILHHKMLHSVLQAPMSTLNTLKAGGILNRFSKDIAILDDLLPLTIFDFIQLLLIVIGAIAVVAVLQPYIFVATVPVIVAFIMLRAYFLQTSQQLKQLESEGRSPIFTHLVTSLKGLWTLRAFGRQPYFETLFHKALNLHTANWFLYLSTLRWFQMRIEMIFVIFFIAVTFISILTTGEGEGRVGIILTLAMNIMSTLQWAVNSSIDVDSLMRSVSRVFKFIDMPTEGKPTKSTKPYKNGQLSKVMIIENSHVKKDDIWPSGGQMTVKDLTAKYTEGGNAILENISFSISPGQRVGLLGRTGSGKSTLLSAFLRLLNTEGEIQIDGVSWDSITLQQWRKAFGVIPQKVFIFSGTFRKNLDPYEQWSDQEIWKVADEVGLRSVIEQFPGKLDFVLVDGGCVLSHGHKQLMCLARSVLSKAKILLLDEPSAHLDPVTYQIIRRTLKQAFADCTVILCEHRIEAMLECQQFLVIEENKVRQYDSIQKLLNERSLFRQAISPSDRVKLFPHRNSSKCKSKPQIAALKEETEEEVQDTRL
T5 sequence (P13569 whole entry R117H): as the sequence (P13569 whole entry G178R) above, with R117H, R178G counted along it
T1 sequence (P13569 whole entry G551D): as the sequence (P13569 whole entry G178R) above, with R178G, G551D counted along it
T2 sequence (P13569 whole entry S549N): as the sequence (P13569 whole entry G178R) above, with R178G, S549N counted along it

As a reminder, the pEC50 is the negative decadic logarithm of the EC50, by convention in mol/L. Low readings indicate a high EC50, high ones a low EC50. For the molecule `CC(C)(O)C(=O)Nc1sc(S(=O)(=O)c2ccc(C#N)cc2C(F)(F)F)cc1C(N)=O` [Compound 407, 5-[4-cyano-2-(trifluoromethyl)phenyl] sulfonyl-2-[(2-hydroxy-2-methyl-propanoyl)amino] thiophene-3-carboxamide], the negative logarithm of the EC50 (pEC50) was 5.48 at CFTR G551D mutant; 5.54 on CFTR-S549N; 5.82 on CFTR-G178R; 7.30 at CFTR ΔF508 mutant; 6.58 at CFTR-R117H; 5.48 on CFTR-G1349D.
For `CC(C)(O)C(=O)Nc1sc(S(=O)(=O)c2cccc(C(F)(F)F)c2)cc1C(N)=O` [Compound 408, 2-[(2-hydroxy-2-methyl-propanoyl)amino]-5-[3-(trifluoromethyl)phenyl]sulfonyl-thiophene-3-carboxamide], the pEC50 was 5.75 on CFTR G551D mutant; 6.28 on CFTR-S549N; 7.37 at CFTR-G178R; 7.96 at CFTR ΔF508 mutant; 6.27 on CFTR-R117H; 6.83 at CFTR-G1349D.
In the case of `CC(C)(O)C(=O)Nc1sc(S(=O)(=O)c2ncc(C(F)(F)F)cc2F)cc1C(N)=O` [Compound 410, 5-[[3-fluoro-5-(trifluoromethyl)-2-pyridyl]sulfonyl]-2-[(2-hydroxy-2-methyl-propanoyl)amino] thiophene-3-carboxamide], the pEC50 is 6.15 at CFTR G551D mutant; 6.98 on CFTR-S549N; 7.10 on CFTR-G178R; 7.85 on CFTR ΔF508 mutant; 6.86 on CFTR-R117H; 6.92 at CFTR-G1349D.
Take `CC(C)(O)C(=O)Nc1sc(S(=O)(=O)c2ncccc2C(F)(F)F)cc1C(N)=O` [Compound 411, 2-[(2-hydroxy-2-methyl-propanoyl)amino]-5-[[3-(trifluoromethyl)-2-pyridyl]sulfonyl] thiophene-3-carboxamide]: the pEC50 at CFTR G551D mutant is 5.31; at CFTR-S549N, 6.06; at CFTR-G178R, 6.87; on CFTR ΔF508 mutant it was 7.21; at CFTR-R117H it was 6.31; on CFTR-G1349D, 5.98.
Regarding `CC(C)(O)C(=O)Nc1sc(S(=O)(=O)c2nc(C(F)(F)F)ccc2C(F)(F)F)cc1C(N)=O` [Compound 412, 5-[[3,6-bis(trifluoromethyl)-2-pyridyl]sulfonyl]-2-[(2-hydroxy-2-methyl-propanoyl)amino] thiophene-3-carboxamide], the pEC50 on CFTR G551D mutant was 7.02; at CFTR-S549N, 7.95; at CFTR-G178R, 7.95; at CFTR ΔF508 mutant, 8.45; at CFTR-R117H, 7.45; at CFTR-G1349D, 8.13.
For the molecule `Cc1ccc(C(F)(F)F)c(S(=O)(=O)c2cc(C(N)=O)c(NC(=O)C(C)(C)O)s2)n1` [Compound 413, 2-[(2-hydroxy-2-methyl-propanoyl)amino]-5-[[6-methyl-3-(trifluoromethyl)-2-pyridyl]sulfonyl] thiophene-3-carboxamide], the pEC50 was 5.83 at CFTR G551D mutant; 7.19 at CFTR-S549N; 7.35 at CFTR-G178R; 7.89 at CFTR ΔF508 mutant; 7.15 at CFTR-R117H; 6.87 on CFTR-G1349D.
Regarding `COc1cc(C)cc(S(=O)(=O)c2cc(C(N)=O)c(NC(=O)C(C)(C)O)s2)c1` [Compound 416, 2-[(2-hydroxy-2-methyl-propanoyl)amino]-5-(3-methoxy-5-methyl-phenyl)sulfonyl-thiophene-3-carboxamide], the pEC50 at CFTR G551D mutant is 6.11; on CFTR-S549N, 5.75; at CFTR-G178R, 6.57; at CFTR ΔF508 mutant it was 7.75; on CFTR-R117H, 6.45; at CFTR-G1349D, 6.45.
For `COc1cc(S(=O)(=O)c2cc(C(N)=O)c(NC(=O)C(C)(C)O)s2)c(OC(F)F)cn1` [Compound 418, 5-[[5-(difluoromethoxy)-2-methoxy-4-pyridyl]sulfonyl]-2-[(2-hydroxy-2-methyl-propanoyl)amino] thiophene-3-carboxamide], the pEC50 on CFTR G551D mutant was 6.41; at CFTR-S549N it was 6.74; on CFTR-G178R it was 7.84; at CFTR ΔF508 mutant, 8.09; at CFTR-R117H it was 6.72; on CFTR-G1349D it was 7.74.
